Assay results taken from PubChem BioAssay AID230 (DTP/NCI, 2004).
“And” between values parts separate entries of the source, which are not always exact repeats. Equal values may be shown once. Toxic doses and inconclusive results are not listed. Rule for the calls: active = survival T/C of 150% or more; inactive = T/C below 125% in these data.

System: C3H/He mice, Gardner lymphosarcoma 6C3HED ip, survival T/C
Assay: NCI In Vivo Anticancer Drug Screen. Data for tumor model Lymphosarcoma Gardner 6C3HED (intraperitoneal) in C3H/He mice
Conditions: higher = longer survival
Protocol: The antitumor activity of compounds was measured in mice bearing transplantable tumors. Survival or tumor size were measured and the results are expressed as the measurement made in the treated group (T) divided by the measurement made in the vehicle treated control group (C). The tumor model used in this assay is Lymphosarcoma Gardner 6C3HED (intraperitoneal) in C3H/He mice

[1] = endpoint: survival time, mean or median, dose: 62.5 mg/kg/injection, schedule: Q01DX010 (ip), vehicle: saline
[2] = endpoint: survival time, mean or median, dose: 125.0 mg/kg/injection, schedule: Q01DX010 (ip), vehicle: saline
[3] = endpoint: survival time, mean or median, dose: 250.0 mg/kg/injection, schedule: Q01DX010 (ip), vehicle: saline
[4] = endpoint: survival time, mean or median, dose: 500.0 mg/kg/injection, schedule: Q01DX010 (ip), vehicle: saline
[5] = endpoint: survival time, mean or median, dose: 25.0 mg/kg/injection, schedule: Q01DX010 (ip), vehicle: saline
[6] = endpoint: survival time, mean or median, dose: 50.0 mg/kg/injection, schedule: Q01DX010 (ip), vehicle: saline
[7] = endpoint: survival time, mean or median, dose: 100.0 mg/kg/injection, schedule: Q01DX010 (ip), vehicle: saline
[8] = endpoint: survival time, mean or median, dose: 200.0 mg/kg/injection, schedule: Q01DX010 (ip), vehicle: saline
[9] = endpoint: survival time, mean or median, dose: 4.0 mg/kg/injection, schedule: Q01DX010 (ip), vehicle: saline
[10] = endpoint: survival time, mean or median, dose: 8.0 mg/kg/injection, schedule: Q01DX010 (ip), vehicle: saline
[11] = endpoint: survival time, mean or median, dose: 16.0 mg/kg/injection, schedule: Q01DX010 (ip), vehicle: saline
[12] = endpoint: survival time, mean or median, dose: 32.0 mg/kg/injection, schedule: Q01DX010 (ip), vehicle: saline
[13] = endpoint: survival time, mean or median, dose: 1.25 mg/kg/injection, schedule: Q01DX010 (ip), vehicle: saline
[14] = endpoint: survival time, mean or median, dose: 2.5 mg/kg/injection, schedule: Q01DX010 (ip), vehicle: saline
[15] = endpoint: survival time, mean or median, dose: 5.0 mg/kg/injection, schedule: Q01DX010 (ip), vehicle: saline
[16] = endpoint: survival time, mean or median, dose: 10.0 mg/kg/injection, schedule: Q01DX010 (ip), vehicle: saline
[17] = endpoint: survival time, mean or median, dose: 12.5 mg/kg/injection, schedule: Q01DX010 (ip), vehicle: saline
[18] = endpoint: survival time, mean or median, dose: 20.0 mg/kg/injection, schedule: Q01DX010 (ip), vehicle: saline

Measured: T/C

Cc1cn(C2OC(CO)C(O)C2O)c(=O)[nH]c1=O (centres undefined)
inactive: [1] 100 % of control | [2] 96 % of control and 100 % of control | [3] 100 % of control | [4] 103 % of control

O=CN(O)CC(=O)O
inactive: [1] 96 % of control | [2] 89 % of control | [3] 107 % of control | [4] 100 % of control

c1ccc(CCSc2ncnc3nc[nH]c23)cc1
inactive: [1] 96 % of control | [2] 96 % of control and 100 % of control | [3] 93 % of control and 96 % of control | [4] 93 % of control and 96 % of control

CS(=O)(=O)OCC(O)C(O)C(O)C(O)COS(C)(=O)=O (centres undefined)
inactive: [5] 94 % of control | [6] 100 % of control | [7] 94 % of control and 100 % of control | [8] 100 % of control and 105 % of control | endpoint: survival time, mean or median, dose: 400.0 mg/kg/injection, schedule: Q01DX010 (ip), vehicle: saline 110 % of control

CS(=O)(=O)OCCC(=O)N1CCN(C(=O)CCOS(C)(=O)=O)CC1
active: [6] 207 % of control and 267 % of control

Nc1ncnc2c1ncn2C1OC(COP(=O)(O)O)C(O)C1O (centres undefined)
inactive: endpoint: median survival time, dose: 18.3 mg/kg/injection, schedule: Q01DX003 (ip), vehicle: saline 100 % of control | endpoint: median survival time, dose: 18.3 mg/kg/injection, schedule: Q12HX006 (ip), vehicle: saline 109 % of control | endpoint: median survival time, dose: 36.6 mg/kg/injection, schedule: Q01DX003 (ip), vehicle: saline 95 % of control | endpoint: median survival time, dose: 36.6 mg/kg/injection, schedule: Q12HX006 (ip), vehicle: saline 111 % of control | endpoint: median survival time, dose: 73.2 mg/kg/injection, schedule: Q01DX003 (ip), vehicle: saline 90 % of control | endpoint: median survival time, dose: 73.3 mg/kg/injection, schedule: Q12HX006 (ip), vehicle: saline 104 % of control

CN(C)/N=N/c1nc[nH]c1C(N)=O
active: [5] 300 % of control | [6] 300 % of control and 311 % of control | [7] 266 % of control and 300 % of control
118 % of control and 296 % of control: [8]

CCCCNc1ncnc2c1cnn2C
inactive: [9] 90 % of control and 100 % of control | [10] 95 % of control and 100 % of control | [11] 90 % of control and 100 % of control | [12] 90 % of control and 100 % of control

C[N+](C)(C)c1ncnc2nc[nH]c12
inactive: endpoint: survival time, mean or median, dose: 15.0 mg/kg/injection, schedule: Q01DX010 (ip), vehicle: saline 92 % of control | endpoint: survival time, mean or median, dose: 30.0 mg/kg/injection, schedule: Q01DX010 (ip), vehicle: saline 96 % of control

NC(=O)CC(N)C(=O)O (centres undefined)
inactive: endpoint: median survival time, dose: 100.0 mg/kg/injection, schedule: Q01DX005 (ip), vehicle: water 92 % of control | endpoint: median survival time, dose: 200.0 mg/kg/injection, schedule: Q01DX005 (ip), vehicle: water 100 % of control | endpoint: median survival time, dose: 400.0 mg/kg/injection, schedule: Q01DX005 (ip), vehicle: water 92 % of control | endpoint: median survival time, dose: 800.0 mg/kg/injection, schedule: Q01DX005 (ip), vehicle: water 92 % of control

CC[n+]1c(-c2ccccc2)c2cc(N)ccc2c2ccc(N)cc21
inactive: [13] 117 % of control | [14] 121 % of control | [15] 117 % of control | [16] 121 % of control

CC[C@@H](c1ccc(O)cc1)[C@@H](CC)c1ccc(O)cc1
inactive: endpoint: survival time, mean or median, dose: 25.0 mg/kg/injection, schedule: Q01DX010 (sc), vehicle: water 96 % of control | endpoint: survival time, mean or median, dose: 50.0 mg/kg/injection, schedule: Q01DX010 (sc), vehicle: water 93 % of control | endpoint: survival time, mean or median, dose: 100.0 mg/kg/injection, schedule: Q01DX010 (sc), vehicle: water 93 % of control

C[C@@H]1C[C@H]2CC[C@H](O2)[C@H](C)C(=O)O[C@@H](C)C[C@@H]2CC[C@@H](O2)[C@@H](C)C(=O)O[C@H](C)C[C@H]2CC[C@H](O2)[C@H](C)C(=O)O[C@@H](C)C[C@@H]2CC[C@@H](O2)[C@@H](C)C(=O)O1
inactive: [17] 100 % of control | [5] 92 % of control | [6] 96 % of control

S=P(N1CC1)(N1CC1)N1CC1
inactive: endpoint: survival time, mean or median, dose: 0.75 mg/kg/injection, schedule: Q01DX010 (ip), vehicle: saline 100 % of control | endpoint: survival time, mean or median, dose: 1.5 mg/kg/injection, schedule: Q01DX010 (ip), vehicle: saline 104 % of control and 105 % of control | endpoint: survival time, mean or median, dose: 3.0 mg/kg/injection, schedule: Q01DX010 (ip), vehicle: saline 100 % of control and 110 % of control | endpoint: survival time, mean or median, dose: 6.0 mg/kg/injection, schedule: Q01DX010 (ip), vehicle: saline 104 % of control and 115 % of control

CCC1=C(c2ccc(OC)cc2)CCC(C(=O)O)C1C (centres undefined)
inactive: endpoint: survival time, mean or median, dose: 12.5 mg/kg/injection, schedule: Q01DX010 (sc), vehicle: steriod suspending solution 96 % of control | endpoint: survival time, mean or median, dose: 25.0 mg/kg/injection, schedule: Q01DX010 (sc), vehicle: steriod suspending solution 107 % of control | endpoint: survival time, mean or median, dose: 50.0 mg/kg/injection, schedule: Q01DX010 (sc), vehicle: steriod suspending solution 92 % of control | endpoint: survival time, mean or median, dose: 100.0 mg/kg/injection, schedule: Q01DX010 (sc), vehicle: steriod suspending solution 100 % of control

NC(Cc1ccc(N(CCCl)CCCl)cc1)C(=O)O (centres undefined)
inactive: [13] 107 % of control | [15] 89 % of control and 119 % of control

CS(=O)(=O)OCCN(CCOS(C)(=O)=O)c1ccc(N=O)cc1
inactive: endpoint: survival time, mean or median, dose: 62.5 micrograms/kg/injection, schedule: Q01DX010 (ip), vehicle: saline 107 % of control | endpoint: survival time, mean or median, dose: 125.0 micrograms/kg/injection, schedule: Q01DX010 (ip), vehicle: saline 111 % of control | endpoint: survival time, mean or median, dose: 250.0 micrograms/kg/injection, schedule: Q01DX010 (ip), vehicle: saline 111 % of control | endpoint: survival time, mean or median, dose: 500.0 micrograms/kg/injection, schedule: Q01DX010 (ip), vehicle: saline 92 % of control

Cc1cc2nc3c(=O)[nH]c(=O)nc-3n(CC(O)C(O)C(O)C(O)CO)c2cc1C (centres undefined)
inactive: [17] 97 % of control | [6] 100 % of control | [7] 87 % of control and 100 % of control

CN(Cc1cnc2nc(N)nc(N)c2n1)c1c(Cl)cc(C(=O)NC(CCC(=O)O)C(=O)O)cc1Cl (centres undefined)
active: [16] 300 % of control | [18] 300 % of control | endpoint: survival time, mean or median, dose: 40.0 mg/kg/injection, schedule: Q01DX010 (ip), vehicle: saline 300 % of control | endpoint: survival time, mean or median, dose: 80.0 mg/kg/injection, schedule: Q01DX010 (ip), vehicle: saline 300 % of control

CN1CC[C@]23c4c5ccc(O)c4O[C@H]2C(=O)CC[C@H]3[C@H]1C5
inactive: [9] 103 % of control | [10] 100 % of control | [11] 103 % of control | [12] 90 % of control and 100 % of control

COc1ccc(/C=N/NC(N)=S)cc1
inactive: [12] 96 % of control | endpoint: survival time, mean or median, dose: 64.0 mg/kg/injection, schedule: Q01DX010 (ip), vehicle: saline 92 % of control | endpoint: survival time, mean or median, dose: 128.0 mg/kg/injection, schedule: Q01DX010 (ip), vehicle: saline 100 % of control | endpoint: survival time, mean or median, dose: 256.0 mg/kg/injection, schedule: Q01DX010 (ip), vehicle: saline 96 % of control

O=C(O)c1[nH]c(=O)[nH]c(=O)c1F
inactive: [13] 111 % of control | [14] 95 % of control and 107 % of control | [15] 92 % of control and 103 % of control | [16] 96 % of control

CC1CN1P(=S)(N1CC1C)N1CC1C (centres undefined)
inactive: [13] 103 % of control | [14] 100 % of control and 103 % of control | [15] 92 % of control and 107 % of control | [16] 100 % of control and 103 % of control | [18] 107 % of control

COS(C)(=O)=O
inactive: [17] 119 % of control
active: [5] 300 % of control | [6] 300 % of control

[I][Hg][CH2]C1COC([CH2][Hg][I])CO1 (centres undefined)
inactive: endpoint: survival time, mean or median, dose: 1.56 mg/kg/injection, schedule: Q01DX010 (ip), vehicle: saline 93 % of control | endpoint: survival time, mean or median, dose: 3.13 mg/kg/injection, schedule: Q01DX010 (ip), vehicle: saline 100 % of control

Cc1n[nH]c(=O)[nH]c1=O
inactive: [2] 106 % of control | [3] 90 % of control | endpoint: survival time, mean or median, dose: 1000.0 mg/kg/injection, schedule: Q01DX010 (ip), vehicle: saline 90 % of control
